Measurements reported in patent US10392367B2, “IRE1 small molecule inhibitors” (QUENTIS THERAPEUTICS, INC., priority 2017, dated 2019).
pEC50, pIC50: −log10 of the molar value.

Tests used:
[1] = target: T1, IRE1a (Homo sapiens, UniProt O75460); experiment: In vitro FRET assay (XBP1 RNA probe cleavage by IRE1a); type: biochemical; set-up: purchased SignalChem; conditions: SignalChem IRE1a protein 2 nM
Protocol: In vitro FRET assay was performed to evaluate the ability of select compounds to inhibit IRE1, the results of which are summarized in Table 3. To perform the in vitro FRET assay, 1× complete assay buffer (CAB; […] DTT, 50 mM sodium citrate pH 7.15, 1 mM magnesium acetate, 0.02% tween 20) was used to dilute SignalChem IRE1a protein to a final concentration of 2 nM. Selected compounds were serially diluted with DMSO in a non-binding black 384-well plate for a total of 15 ul in each well. 2 ul of the serially diluted compound or DMSO control were then added to new wells containing 98 ul of 1×CAB, for a total volume of 100 ul, 10 ul of which were then transferred to wells of a new plate. 5 ul of the diluted IRE1a was then added to each well. 5 ul of a […] XBP1 RNA probe was then added to each well. Fluorescence was then read over 30 minutes in kinetic mode (485/515 nm).
Two RNA probes were used, XBP1 wildtype (SEQ ID NO: 2) which is able to be spliced by active IRE1a or XBP1 mutant (SEQ ID NO: 3) which is unable to be spliced. Each probe contained a 5′ 6-FAM modification and a 3′ IOWA Black FQ modification.

[2] = target: T1, IRE1a; experiment: IRE1a Endoribonuclease Nanoluciferase Assay (XBP1 luciferase reporter in 293 T cells); type: cell-based; conditions: 293 T cells transfected with XBP1 luciferase reporter plasmid
Protocol: Compounds disclosed herein were assessed for disruption of IRE1 signaling using a IRE1a Endoribonuclease Nanoluciferase Assay. Briefly, 2.5×10^6 293 T cells were seeded in a 10 cm^2 tissue culture plate. About 24 hours later, the cells were transfected with Effectene. In a 15 mL Tube, the following was added: 2 μg XBP1 luciferase reporter plasmid (PGK-Luc2-P2A-XBP1u-Nanoluciferase-PEST); 300 μl EC buffer; and 16 μl Enhancer, followed by incubation at room temp for 5 minutes. Next, 60 μl Effectene (Qiagen 301427) was added, followed by incubation at room temperature for 10 minutes. 2.6 mL cDMEM media was added. Old media was aspirated from the cells, followed by addition of 7 mL fresh media. Full transfection mixture was added dropwise to cells. Cells were incubated for 6 hours, followed by tripsinization, centrifugation and resuspension in 11 mL media. 100 uL of cells were plated per a well in a 96 well plate. A day later, stressors of choice+/− inhibitors were added. To harvest, media was aspirated from cells completely, then 50 uL 1× passive lysis buffer (Promega: E1941) was added per well and put on shaker (300 rpm) for 30 minutes at room temperature. Cells were centrifuged, and 15 uL sample per well was added to a new, opaque white 384 well plate (Corning 3570). 15 uL OneGlo (nanoluciferase kit, Promega N1630) was added. Plates were spun down, placed on shaker (300 rpm) for 10 minutes. Plates were read on luminometer, 1000 ms integration time per well. 15 uL Stop and Glo (nanoluciferase kit) was added. Plates were spun down, placed on shaker (300 rpm) for 10 minutes. Plates were read on luminometer, 1000 ms second integration time per well. Recordings are provided below in Table 4.

T1 sequence (O75460 19-977): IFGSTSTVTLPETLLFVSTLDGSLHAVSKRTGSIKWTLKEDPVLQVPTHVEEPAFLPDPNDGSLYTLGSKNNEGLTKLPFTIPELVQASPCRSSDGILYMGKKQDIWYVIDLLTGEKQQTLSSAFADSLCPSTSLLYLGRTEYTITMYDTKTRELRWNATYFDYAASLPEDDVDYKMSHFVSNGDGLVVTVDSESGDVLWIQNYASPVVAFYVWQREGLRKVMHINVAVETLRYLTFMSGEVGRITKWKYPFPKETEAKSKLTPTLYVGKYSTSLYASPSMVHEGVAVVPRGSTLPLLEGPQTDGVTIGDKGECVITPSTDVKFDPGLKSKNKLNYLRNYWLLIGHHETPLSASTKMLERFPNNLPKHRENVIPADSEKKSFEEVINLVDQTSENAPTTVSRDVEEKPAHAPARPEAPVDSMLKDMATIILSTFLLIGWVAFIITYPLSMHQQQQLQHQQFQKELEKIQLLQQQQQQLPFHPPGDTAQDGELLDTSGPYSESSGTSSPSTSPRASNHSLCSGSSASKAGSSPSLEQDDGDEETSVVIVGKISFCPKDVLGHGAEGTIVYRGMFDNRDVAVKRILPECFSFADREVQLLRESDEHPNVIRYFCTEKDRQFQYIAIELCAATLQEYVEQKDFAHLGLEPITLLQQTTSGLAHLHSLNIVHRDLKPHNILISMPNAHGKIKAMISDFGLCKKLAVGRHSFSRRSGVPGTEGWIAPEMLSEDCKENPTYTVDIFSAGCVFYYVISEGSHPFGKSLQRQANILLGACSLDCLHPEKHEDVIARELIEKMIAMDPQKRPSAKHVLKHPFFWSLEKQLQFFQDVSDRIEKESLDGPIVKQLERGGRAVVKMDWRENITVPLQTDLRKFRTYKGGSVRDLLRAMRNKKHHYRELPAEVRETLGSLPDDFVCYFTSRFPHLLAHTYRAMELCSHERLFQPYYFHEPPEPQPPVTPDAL

pIC50 [1]	pEC50 [2]	Mean EC50 [2]	Structure (SMILES)
7.30 to 8.30	–	–	CCc1cc(-c2cc(NC(=O)[C@@H](O)c3ccccc3)nn2C)cc2cnc(N[C@H]3CC[C@H](N)CC3)nc12 [Compound 15, (S)-N-(5-(2-(((1r,4r)-4-aminocyclohexyl)amino)-8-ethylquinazolin-6-yl)-1-methyl-1H-pyrazol-3-yl)-2-hydroxy-2-phenylacetamide]
≥ 8.30	≥ 8.30	–	CCc1cc(-c2cc(NC(=O)Cc3ccc(OC4CCN(C)CC4)c(C(F)(F)F)c3)nn2C)cc2cnc(N[C@H]3CC[C@H](N)CC3)nc12 [Compound 32, N-(5-(2-(((1r,4r)-4-aminocyclohexyl)amino)-8-ethylquinazolin-6-yl)-1-methyl-1H-pyrazol-3-yl)-2-(4-((1-methylpiperidin-4-yl)oxy)-3-(trifluoromethyl)phenyl)acetamide]
< 7.00	–	–	CCc1cc(-c2cc(NC(=O)[C@@H](N)c3ccccc3)nn2C)cc2cnc(N[C@H]3CC[C@H](N)CC3)nc12 [Compound 24, (S)-2-amino-N-(5-(2-(((1r,4r)-4-aminocyclohexyl)amino)-8-ethylquinazolin-6-yl)-1-methyl-1H-pyrazol-3-yl)-2-phenylacetamide]
7.30 to 8.30	< 7.00	–	CCc1cc(-c2cc(NC(=O)Cc3cc(F)ccc3C(F)(F)F)nn2C)cc2cnc(N[C@H]3CC[C@H](N)CC3)nc12 [Compound 13, N-(5-(2-(((1r,4r)-4-aminocyclohexyl)amino)-8-ethylquinazolin-6-yl)-1-methyl-1H-pyrazol-3-yl)-2-(5-fluoro-2-(trifluoromethyl)phenyl)acetamide]
≥ 8.30	7.30 to 8.30	–	CCc1cc(-c2cc(NC(=O)Cc3cc(C(F)(F)F)ccc3C)nn2C)cc2cnc(N[C@H]3CC[C@H](N)CC3)nc12 [Compound 34, N-(5-(2-(((1r,4r)-4-aminocyclohexyl)amino)-8-ethylquinazolin-6-yl)-1-methyl-1H-pyrazol-3-yl)-2-(2-methyl-5-(trifluoromethyl)phenyl)acetamide]
< 7.00	–	–	CCc1cc(-c2cc(NC(=O)Cc3cccc(C(F)(F)F)c3)nn2C)cc2cnc(N[C@H]3CC[C@H](N(C)CCOC)CC3)nc12 [Compound 46, N-(5-(8-ethyl-2-(((1r,4r)-4-((2-methoxyethyl)(methyl)amino)cyclohexyl)amino)quinazolin-6-yl)-1-methyl-1H-pyrazol-3-yl)-2-(3-(trifluoromethyl)phenyl)acetamide]
7.00 to 7.30	–	–	CCc1cc(-c2cc(NC(=O)Cc3cc(C(F)(F)F)ccc3C(F)(F)F)nn2C)cc2cnc(N[C@H]3CC[C@](C)(N)CC3)nc12 [Compound 49, N-(5-(2-(((1r,4r)-4-amino-4-methylcyclohexyl)amino)-8-ethylquinazolin-6-yl)-1-methyl-1H-pyrazol-3-yl)-2-(2,5-bis(trifluoromethyl)phenyl)acetamide]
≥ 8.30	≥ 8.30	–	CCc1cc(-c2cc(NC(=O)Nc3ccc(OC4CCN(C)CC4)c(C(F)(F)F)c3)nn2C)cc2cnc(N[C@H]3CC[C@H](N)CC3)nc12 [Compound 4; Formic Acid, 1-(5-(2-(((1r,4r)-4-aminocyclohexyl)amino)-8-ethylquinazolin-6-yl)-1-methyl-1H-pyrazol-3-yl)-3-(4-((1-methylpiperidin-4-yl)oxy)-3-(trifluoromethyl)phenyl)urea]
7.00 to 7.30	7.00 to 7.30	–	CCc1cc(-c2cc(NC(=O)Cc3cc(C(F)(F)F)ccc3C(F)(F)F)nn2C)cc2cnc(N[C@H]3CC[C@H](NC(=O)CN)CC3)nc12 [Compound 44, 2-amino-N-((1r,4r)-4-((6-(3-(2-(2,5-bis(trifluoromethyl)phenyl)acetamido)-1-methyl-1H-pyrazol-5-yl)-8-ethylquinazolin-2-yl)amino)cyclohexyl)acetamide]
≥ 8.30	–	A-B	CCc1cc(-c2cc(NC(=O)Cc3cc(C(F)(F)F)ccc3C(F)(F)F)nn2C)cc2cnc(N[C@H]3CC[C@H](N)CC3)nc12 [Compound 12, N-(5-(2-(((1r,4r)-4-aminocyclohexyl)amino)-8-ethylquinazolin-6-yl)-1-methyl-1H-pyrazol-3-yl)-2-(2,5-bis(trifluoromethyl)phenyl)acetamide]
≥ 8.30	7.00 to 7.30	–	CCc1cc(-c2cc(NC(=O)Cc3cccc(C(F)(F)F)c3)nn2C)cc2cnc(N[C@H]3CC[C@H](N)CC3)nc12 [Compound 2, N-(5-(2-(((1r,4r)-4-aminocyclohexyl)amino)-8-ethylquinazolin-6-yl)-1-methyl-1H-pyrazol-3-yl)-2-(3-(trifluoromethyl)phenyl)acetamide]
< 7.00	–	–	Cc1c(-c2cc(NC(=O)Cc3cc(C(F)(F)F)ccc3C(F)(F)F)nn2C)ccc2nc(N[C@H]3CC[C@H](N)CC3)ncc12 [Compound 45, N-(5-(2-(((1r,4r)-4-aminocyclohexyl)amino)-5-methylquinazolin-6-yl)-1-methyl-1H-pyrazol-3-yl)-2-(2,5-bis(trifluoromethyl)phenyl)acetamide]
< 7.00	–	–	CCc1cc(-c2cc(NC(=O)[C@H](N)c3ccccc3)nn2C)cc2cnc(N[C@H]3CC[C@H](N)CC3)nc12 [Compound 22, (R)-2-amino-N-(5-(2-(((1r,4r)-4-aminocyclohexyl)amino)-8-ethylquinazolin-6-yl)-1-methyl-1H-pyrazol-3-yl)-2-phenylacetamide]
7.30 to 8.30	–	–	CCc1cc(-c2cc(NC(=O)Cc3cccc(C#N)c3)nn2C)cc2cnc(N[C@H]3CC[C@H](N)CC3)nc12 [Compound 17, N-(5-(2-(((1r,4r)-4-aminocyclohexyl)amino)-8-ethylquinazolin-6-yl)-1-methyl-1H-pyrazol-3-yl)-2-(3-cyanophenyl)acetamide]
7.00 to 7.30	–	–	CCc1cc(-c2cc(NC(=O)Nc3cc(C(F)(F)F)cc(C(F)(F)F)c3)nn2C)cc2cnc(N[C@H]3CC[C@H](N)CC3)nc12 [Compound 21, 1-(5-(2-(((1r,4r)-4-aminocyclohexyl)amino)-8-ethylquinazolin-6-yl)-1-methyl-1H-pyrazol-3-yl)-3-(3,5-bis(trifluoromethyl)phenyl)urea]
7.00 to 7.30	–	–	CCc1cc(-c2cc(NC(=O)Cc3cc(C(F)(F)F)ccc3C(F)(F)F)nn2C)cc2cnc(N[C@H]3CC[C@@](C)(N)CC3)nc12 [Compound 50, N-(5-(2-(((1s,4s)-4-amino-4-methylcyclohexyl)amino)-8-ethylquinazolin-6-yl)-1-methyl-1H-pyrazol-3-yl)-2-(2,5-bis(trifluoromethyl)phenyl)acetamide]
< 7.00	–	–	CCc1cc(-c2cc(NC(=O)Cc3cccc(C(F)(F)F)c3)nn2C)cc2cnc(N[C@H]3CC[C@H](O)CC3)nc12 [Compound 3, N-(5-(8-ethyl-2-(((1r,4r)-4-hydroxycyclohexyl)amino)quinazolin-6-yl)-1-methyl-1H-pyrazol-3-yl)-2-(3-(trifluoromethyl)phenyl)acetamide]
7.30 to 8.30	–	–	CCc1cc(-c2cc(NC(=O)Cc3cc(F)cc(C(F)(F)F)c3)nn2C)cc2cnc(N[C@H]3CC[C@H](N)CC3)nc12 [Compound 20, N-(5-(2-(((1r,4r)-4-aminocyclohexyl)amino)-8-ethylquinazolin-6-yl)-1-methyl-1H-pyrazol-3-yl)-2-(3-fluoro-5-(trifluoromethyl)phenyl)acetamide]
7.30 to 8.30	–	–	CCc1cc(-c2cc(NC(=O)Cc3cc(C(F)(F)F)cc(C(F)(F)F)c3)nn2C)cc2cnc(N[C@H]3CC[C@H](N)CC3)nc12 [Compound 5, N-(5-(2-(((1r,4r)-4-aminocyclohexyl)amino)-8-ethylquinazolin-6-yl)-1-methyl-1H-pyrazol-3-yl)-2-(3,5-bis(trifluoromethyl)phenyl)acetamide]
< 7.00	–	–	CCc1cc(-c2cc(CC(=O)Nc3cccc(C(F)(F)F)c3)nn2C)cc2cnc(N[C@H]3CC[C@H](N)CC3)nc12 [Compound 23, 2-(5-(2-(((1r,4r)-4-aminocyclohexyl)amino)-8-ethylquinazolin-6-yl)-1-methyl-1H-pyrazol-3-yl)-N-(3-(trifluoromethyl)phenyl)acetamide]
